Our source for the IC50 values is ChEMBL document CHEMBL5728227, “Substituted pyrazole derivatives as selective CDK12/13 inhibitors” (2021).

The test addresses Cyclin-dependent kinase 7 (Homo sapiens, UniProt P50613). The test is described as follows: Biochemical Assay for CDK7: The inhibitory activity of the test compounds was assessed by the LANCE TR-FRET assay, which detects the ATP-dependent phosphorylation of an ULight-myelin basic protein (MBP) substrate peptide (100 nM) by CDK7 (10 nM). Briefly, the enzyme reaction was run in reaction buffer (20 mM HEPES (pH 7.5), 10 mM MgCl2, 0.01% Triton x, 100 μM Sodium Orthovanadate, 1 mM DTT). The assay was performed in 384-well plate. The end concentration of the ATP substrate was 1 mM/100 μM, and that of the ULight-MBP substrate peptide was 100 nM, and of CDK7 was 10 nM. Pre-incubation of the compound and enzyme was performed for 60 min at room temperature. After 60 min incubation at room temperature, the reaction was terminated by the addition of 40 mM EDTA and 1 nM Eu-labeled anti-phospho-MBP-binding protein antibody in the buffer. Time-resolved fluorescence (excitation, 320 nm; emission donor, 615 nm; emission acceptor, 665 nm) was monitored by using 2030 multilabel reader Victor5 (PerkinElmer). The readout was calculated as (acceptor counts/donor counts)×1000. The IC50 values were derived by fitting a sigmoidal dose-response curve to a plot of assay readout over inhibitor concentration. All fits were computed with the program Prism 5.03 (Graph Pad Software, San Diego, Calif.).

Structures are written as SMILES.

Chain of Cyclin-dependent kinase 7 (P50613 whole entry): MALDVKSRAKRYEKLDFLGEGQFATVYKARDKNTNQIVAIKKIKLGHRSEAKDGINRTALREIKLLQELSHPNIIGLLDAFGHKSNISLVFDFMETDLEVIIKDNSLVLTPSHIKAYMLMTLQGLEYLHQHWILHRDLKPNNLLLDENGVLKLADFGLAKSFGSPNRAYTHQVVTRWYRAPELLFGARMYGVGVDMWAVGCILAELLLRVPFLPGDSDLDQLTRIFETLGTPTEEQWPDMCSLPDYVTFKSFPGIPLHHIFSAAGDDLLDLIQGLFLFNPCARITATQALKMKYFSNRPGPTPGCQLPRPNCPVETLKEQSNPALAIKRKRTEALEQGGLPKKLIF

A word on the IC50: it is the concentration at which inhibition is half-maximal. Consider `C=CC(=O)N1CCC=C(c2ccc(CC(=O)Nc3cc(C4CC4)[nH]n3)cn2)C1`, for which the IC50 was 1730 nM.
